Data taken from patent US7544704B2, “Aryl-4-ethynyl-isoxazole derivatives” (Hoffmann-La Roche Inc., priority 2006, dated 2009).

Target: T1, human GABA A receptor α5β3γ2 (Homo sapiens, UniProt P18507+P31644)
T1 construct: expressed in transfected cells; host or cells: HEK293 (transiently transfected), membranes
Test: [3H]flumazenil competition binding to HEK293 cell membranes expressing human GABA A α5β3γ2
Details: displacement of [3H]flumazenil (0.5 nM), human α5β3γ2 transiently transfected in HEK293, means of two determinations; read-out: Ki[nM] hα5
Method: Membrane Preparation and Binding Assay
The affinity of compounds at GABA A receptor subtypes was measured by competition for [3H]flumazenil (85 Ci/mmol; Roche) binding to HEK293 cells expressing rat (stably transfected) or human (transiently transfected) receptors of composition α1β3γ2, α2β3γ2, α3β3γ2 and α5β3γ2.
Cell pellets were suspended in Krebs-tris buffer (4.8 mM KCl, 1.2 mM CaCl2, 1.2 mM MgCl2, 120 mM NaCl, 15 mM Tris; pH 7.5; binding assay buffer), homogenized by polytron for ca. 20 sec on ice and centrifuged for 60 min at 4° C. (50000 g; Sorvall, rotor: SM24=20000 rpm). The cell pellets were resuspended in Krebs-tris buffer and homogenized by polytron for ca. 15 sec on ice. Protein was measured (Bradford method, Bio-Rad) and aliquots of 1 mL were prepared and stored at −80° C.
Radioligand binding assays were carried out in a volume of […] (96-well plates) which contained […] of cell membranes, [3H]flumazenil at a concentration of 1 nM for α1, α2, α3 subunits and 0.5 nM for a5 subunits and the test compound in the range of […]. Nonspecific binding was defined by 10^−5 M diazepam and typically represented less than 5% of the total binding. Assays were incubated to equilibrium for 1 hour at 4° C. and harvested onto GF/C uni-filters (Packard) by filtration using a Packard harvester and washing with ice-cold wash buffer (50 mM Tris; pH 7.5). After drying, filter-retained radioactivity was detected by liquid scintillation counting. Ki values were calculated using Excel-Fit (Microsoft) and are the means of two determinations.

| Ki [nM] | SMILES |
| --- | --- |
| 47.9 | Cc1onc(-c2ccccc2)c1C#Cc1ccccn1 [Example 1, 2-(5-Methyl-3-phenyl-isoxazol-4-ylethynyl)-pyridine] |
| 91.6 | Cc1onc(-c2ccccc2)c1C#Cc1cccc(C(=O)NC2CCOCC2)c1 [Example 8, 3-(5-Methyl-3-phenyl-isoxazol-4-ylethynyl)-N-(tetrahydro-pyran-4-yl)-benzamide] |
| 87.3 | COC(=O)c1ccccc1C#Cc1c(-c2ccccc2)noc1C [Example 12, 2-(5-Methyl-3-phenyl-isoxazol-4-ylethynyl)-benzoic acid methyl ester] |
| 38.4 | Cc1onc(-c2ccccc2)c1C#Cc1ccccc1N [Example 14, 2-(5-Methyl-3-phenyl-isoxazol-4-ylethynyl)-phenylamine] |
| 74.9 | COC(=O)c1ccnc(C#Cc2c(-c3ccccc3)noc2C)c1 [Example 17, 2-(5-Methyl-3-phenyl-isoxazol-4-ylethynyl)-isonicotinic acid methyl ester] |
| 26.6 | Cc1ccc(C#Cc2c(-c3ccccc3)noc2C)nn1 [Example 19, 3-Methyl-6-(5-methyl-3-phenyl-isoxazol-4-ylethynyl)-pyridazine] |
| 26 | Cc1onc(-c2ccccc2)c1C#Cc1nccn1C [Example 21, 5-Methyl-4-(1-methyl-1H-imidazol-2-ylethynyl)-3-phenyl-isoxazole] |
| 77.2 | Cc1ncc(C#Cc2c(-c3ccccc3)noc2C)[nH]1 [Example 22, 5-Methyl-4-(2-methyl-3H-imidazol-4-ylethynyl)-3-phenyl-isoxazole] |
| 53 | Cc1c[nH]nc1C#Cc1c(-c2ccccc2)noc1C [Example 23, 5-Methyl-4-(4-methyl-1H-pyrazol-3-ylethynyl)-3-phenyl-isoxazole] |
| 85.2 | CCOC(=O)c1nc(C)sc1C#Cc1c(-c2ccccc2)noc1C [Example 24, 2-Methyl-5-(5-methyl-3-phenyl-isoxazol-4-ylethynyl)-thiazole-4-carboxylic acid ethyl ester] |
| 10.4 | Cc1cnc(C)c(C#Cc2c(-c3ccccc3)noc2C)n1 [Example 26, 2,5-Dimethyl-3-(5-methyl-3-phenyl-isoxazol-4-ylethynyl)-pyrazine] |
| 39.8 | Cc1onc(-c2ccccc2)c1C#Cc1cc(C(=O)NCC2CC2)ccn1 [Example 27, N-Cyclopropylmethyl-2-(5-methyl-3-phenyl-isoxazol-4-ylethynyl)-isonicotinamide] |
| 20.7 | Cc1onc(-c2ccccc2)c1C#Cc1cc(C(=O)NC2CCOCC2)ccn1 [Example 28, 2-(5-Methyl-3-phenyl-isoxazol-4-ylethynyl)-N-(tetrahydro-pyran-4-yl)-isonicotinamide] |
| 90.1 | Cc1csc(NC(=O)c2ccnc(C#Cc3c(-c4ccccc4)noc3C)c2)n1 [Example 29, 2-(5-Methyl-3-phenyl-isoxazol-4-ylethynyl)-N-(4-methyl-thiazol-2-yl)-isonicotinamide] |
| 71.9 | Cc1onc(-c2ccccc2)c1C#Cc1cccc(Cl)n1 [Example 30, 2-Chloro-6-(5-methyl-3-phenyl-isoxazol-4-ylethynyl)-pyridine] |
| 45.5 | Cc1ccc(C#Cc2c(-c3ccccc3)noc2C)nc1 [Example 31, 5-Methyl-2-(5-methyl-3-phenyl-isoxazol-4-ylethynyl)-pyridine] |
| 28.4 | Cc1onc(-c2ccccc2)c1C#Cc1ncc(-c2ccccc2)n1C [Example 32, 5-Methyl-4-(1-methyl-5-phenyl-1H-imidazol-2-ylethynyl)-3-phenyl-isoxazole] |
| 23.7 | Cc1onc(-c2ccccc2)c1C#Cc1ncc(C)n1-c1ccccc1 [Example 33, 5-Methyl-4-(5-methyl-1-phenyl-1H-imidazol-2-ylethynyl)-3-phenyl-isoxazole] |

| Ki [nM] | SMILES |
| --- | --- |
| 59.2 | Cc1onc(-c2ccccc2)c1C#Cc1cnccn1 [Example 34, 2-(5-Methyl-3-phenyl-isoxazol-4-ylethynyl)-pyrazine] |
| 39.3 | Cc1cccc(C#Cc2c(-c3ccccc3)noc2C)n1 [Example 35, 2-Methyl-6-(5-methyl-3-phenyl-isoxazol-4-ylethynyl)-pyridine] |
| 48 | Cc1ccnc(C#Cc2c(-c3ccccc3)noc2C)c1 [Example 37, 4-Methyl-2-(5-methyl-3-phenyl-isoxazol-4-ylethynyl)-pyridine] |
| 37 | Cc1onc(-c2ccccc2)c1C#Cc1cc(C(F)(F)F)ccn1 [Example 38, 2-(5-Methyl-3-phenyl-isoxazol-4-ylethynyl)-4-trifluoromethyl-pyridine] |
| 28.9 | Cc1cccnc1C#Cc1c(-c2ccccc2)noc1C [Example 39, 3-Methyl-2-(5-methyl-3-phenyl-isoxazol-4-ylethynyl)-pyridine] |
| 55.7 | Cc1onc(-c2ccccc2)c1C#Cc1ccc(N)cn1 [Example 41, 6-(5-Methyl-3-phenyl-isoxazol-4-ylethynyl)-pyridin-3-ylamine] |
| 81.7 | Cc1onc(-c2ccccc2)c1C#Cc1ccc(Cl)cn1 [Example 42, 5-Chloro-2-(5-methyl-3-phenyl-isoxazol-4-ylethynyl)-pyridine] |
| 38.9 | CCc1ccnc(C#Cc2c(-c3ccccc3)noc2C)c1 [Example 44, 4-Ethyl-2-(5-methyl-3-phenyl-isoxazol-4-ylethynyl)-pyridine] |
| 84.4 | Cc1onc(-c2ccccc2)c1C#Cc1cnc2ccccc2n1 [Example 45, 2-(5-Methyl-3-phenyl-isoxazol-4-ylethynyl)-quinoxaline] |
| 18.3 | Cc1onc(-c2ccccc2)c1C#Cc1cncc(N)n1 [Example 46, 6-(5-Methyl-3-phenyl-isoxazol-4-ylethynyl)-pyrazin-2-ylamine] |
| 37.2 | Cc1onc(-c2ccccc2)c1C#Cc1cnc(N)cn1 [Example 47, 5-(5-Methyl-3-phenyl-isoxazol-4-ylethynyl)-pyrazin-2-ylamine] |
| 7.3 | CCOC(=O)c1c(C)nc(C#Cc2c(-c3ccccc3)noc2C)n1C [Example 50, 3,5-Dimethyl-2-(5-methyl-3-phenyl-isoxazol-4-ylethynyl)-3H-imidazole-4-carboxylic acid ethyl ester] |
| 15.5 | Cc1onc(-c2ccccc2)c1C#Cc1nc2n(c1C)CCCC2 [Example 52, 3-Methyl-2-(5-methyl-3-phenyl-isoxazol-4-ylethynyl)-5,6,7,8-tetrahydro-imidazo[1,2-a]pyridine] |
| 52.6 | Cc1onc(-c2ccccc2)c1C#Cc1cc(-c2ccc(F)cc2)n(C)n1 [Example 53, 4-[5-(4-Fluoro-phenyl)-1-methyl-1H-pyrazol-3-ylethynyl]-5-methyl-3-phenyl-isoxazole] |
| 23.5 | Cc1onc(-c2ccccc2)c1C#Cc1nc(C)n(-c2cc(F)cc(F)c2)c1C [Example 56, 4-[1-(3,5-Difluoro-phenyl)-2,5-dimethyl-1H-imidazol-4-ylethynyl]-5-methyl-3-phenyl-isoxazole] |
| 39.1 | Cc1onc(-c2ccccc2)c1C#Cc1nc(C)n(-c2ccc(F)cc2)c1C [Example 57, 4-[1-(4-Fluoro-phenyl)-2,5-dimethyl-1H-imidazol-4-ylethynyl]-5-methyl-3-phenyl-isoxazole] |
| 54.5 | Cc1onc(-c2ccc(Cl)cc2)c1C#Cc1ccccn1 [Example 59, 2-[3-(4-Chloro-phenyl)-5-methyl-isoxazol-4-ylethynyl]-pyridine] |
| 31.9 | COC(=O)c1csc(C#Cc2c(-c3ccccc3)noc2C)n1 [Example 61, 2-(5-Methyl-3-phenyl-isoxazol-4-ylethynyl)-thiazole-4-carboxylic acid methyl ester] |
